Laboratory results taken from article PMC7614367, “Itraconazole inhibits endothelial cell migration by disrupting inositol pyrophosphate-dependent focal adhesion dynamics and cytoskeletal remodeling” (Biomedicine & Pharmacotherapy, 2023).

Columns and labels:
[1] = molecular target: T1, FAK (GST-FAK, flag-FAK) (Homo sapiens, UniProt Q05397); experiment: bead pull-down of GST-FAK by flag-FAK, western blot; format: binding; details: CF2 (10 μM) competing with 5-InsP7 (5 μM)
T1 construct: gene PTK2; full-length FAK, GST- or flag-tagged, produced in HEK293 cells; tags kept; endogenous HUVEC protein also pulled down
T1 sequence (Q05397 2-1052): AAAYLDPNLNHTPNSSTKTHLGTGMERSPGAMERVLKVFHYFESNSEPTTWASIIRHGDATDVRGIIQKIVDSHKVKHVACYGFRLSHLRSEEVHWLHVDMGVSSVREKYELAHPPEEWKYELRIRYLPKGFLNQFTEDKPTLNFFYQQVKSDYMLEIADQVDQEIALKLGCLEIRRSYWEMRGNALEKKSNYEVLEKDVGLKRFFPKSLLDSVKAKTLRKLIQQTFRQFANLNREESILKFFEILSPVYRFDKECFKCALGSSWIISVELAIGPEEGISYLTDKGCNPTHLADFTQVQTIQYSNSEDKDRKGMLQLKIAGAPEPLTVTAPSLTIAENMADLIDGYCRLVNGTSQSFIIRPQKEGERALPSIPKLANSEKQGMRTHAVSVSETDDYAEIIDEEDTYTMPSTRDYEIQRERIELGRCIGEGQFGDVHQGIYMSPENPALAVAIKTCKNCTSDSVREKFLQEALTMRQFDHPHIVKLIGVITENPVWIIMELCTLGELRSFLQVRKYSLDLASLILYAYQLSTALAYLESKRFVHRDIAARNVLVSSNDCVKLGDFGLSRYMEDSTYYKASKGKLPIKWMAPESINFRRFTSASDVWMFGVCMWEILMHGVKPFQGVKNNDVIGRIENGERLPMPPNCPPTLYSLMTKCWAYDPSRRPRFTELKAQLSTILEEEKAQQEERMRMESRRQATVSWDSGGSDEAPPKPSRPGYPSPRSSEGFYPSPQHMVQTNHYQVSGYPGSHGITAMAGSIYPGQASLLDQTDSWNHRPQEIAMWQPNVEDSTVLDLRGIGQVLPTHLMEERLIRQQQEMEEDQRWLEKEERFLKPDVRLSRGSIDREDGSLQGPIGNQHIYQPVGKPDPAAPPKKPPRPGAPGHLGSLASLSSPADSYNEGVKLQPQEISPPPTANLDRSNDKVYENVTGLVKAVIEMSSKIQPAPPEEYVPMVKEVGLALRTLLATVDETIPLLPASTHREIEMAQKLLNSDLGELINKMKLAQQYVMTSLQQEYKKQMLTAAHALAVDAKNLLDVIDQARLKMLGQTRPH

[2] = molecular target: T2, coronin (GST-coronin) (Homo sapiens, UniProt Q9BR76); experiment: affinity resin pull-down of purified protein, western blot; format: binding; details: immobilised 5-PCP-InsP5 resin; 4 °C overnight; also endogenous protein from HUVEC lysate
T2 construct: gene CORO1B; GST-fused coronin produced in HEK293 cells, eluted with glutathione; tag kept; endogenous HUVEC protein also pulled down
T2 sequence (Q9BR76 whole entry, the tested form may be a part): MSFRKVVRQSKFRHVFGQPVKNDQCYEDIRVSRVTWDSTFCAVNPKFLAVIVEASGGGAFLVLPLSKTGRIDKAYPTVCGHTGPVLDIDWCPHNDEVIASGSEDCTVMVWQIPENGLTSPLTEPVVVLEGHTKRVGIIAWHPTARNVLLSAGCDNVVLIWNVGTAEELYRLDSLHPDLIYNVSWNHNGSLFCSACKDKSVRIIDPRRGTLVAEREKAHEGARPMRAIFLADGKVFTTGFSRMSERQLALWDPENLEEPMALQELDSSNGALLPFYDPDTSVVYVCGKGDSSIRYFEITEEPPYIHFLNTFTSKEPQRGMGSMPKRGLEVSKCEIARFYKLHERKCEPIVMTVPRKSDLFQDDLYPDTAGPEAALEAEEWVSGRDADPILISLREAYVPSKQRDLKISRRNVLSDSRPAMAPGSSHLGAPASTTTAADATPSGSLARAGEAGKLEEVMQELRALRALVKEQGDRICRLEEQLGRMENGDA

[3] = molecular target: T3, endogenous FAK (MEF) (Mus musculus, UniProt P34152); experiment: affinity resin pull-down from cell lysate, western blot; format: biochemical; details: immobilised 5-PCP-InsP5 resin
T3 construct: gene Ptk2; endogenous full-length FAK in lysates of WT and IP6K1 KO mouse embryonic fibroblasts
T3 sequence (P34152 2-1052): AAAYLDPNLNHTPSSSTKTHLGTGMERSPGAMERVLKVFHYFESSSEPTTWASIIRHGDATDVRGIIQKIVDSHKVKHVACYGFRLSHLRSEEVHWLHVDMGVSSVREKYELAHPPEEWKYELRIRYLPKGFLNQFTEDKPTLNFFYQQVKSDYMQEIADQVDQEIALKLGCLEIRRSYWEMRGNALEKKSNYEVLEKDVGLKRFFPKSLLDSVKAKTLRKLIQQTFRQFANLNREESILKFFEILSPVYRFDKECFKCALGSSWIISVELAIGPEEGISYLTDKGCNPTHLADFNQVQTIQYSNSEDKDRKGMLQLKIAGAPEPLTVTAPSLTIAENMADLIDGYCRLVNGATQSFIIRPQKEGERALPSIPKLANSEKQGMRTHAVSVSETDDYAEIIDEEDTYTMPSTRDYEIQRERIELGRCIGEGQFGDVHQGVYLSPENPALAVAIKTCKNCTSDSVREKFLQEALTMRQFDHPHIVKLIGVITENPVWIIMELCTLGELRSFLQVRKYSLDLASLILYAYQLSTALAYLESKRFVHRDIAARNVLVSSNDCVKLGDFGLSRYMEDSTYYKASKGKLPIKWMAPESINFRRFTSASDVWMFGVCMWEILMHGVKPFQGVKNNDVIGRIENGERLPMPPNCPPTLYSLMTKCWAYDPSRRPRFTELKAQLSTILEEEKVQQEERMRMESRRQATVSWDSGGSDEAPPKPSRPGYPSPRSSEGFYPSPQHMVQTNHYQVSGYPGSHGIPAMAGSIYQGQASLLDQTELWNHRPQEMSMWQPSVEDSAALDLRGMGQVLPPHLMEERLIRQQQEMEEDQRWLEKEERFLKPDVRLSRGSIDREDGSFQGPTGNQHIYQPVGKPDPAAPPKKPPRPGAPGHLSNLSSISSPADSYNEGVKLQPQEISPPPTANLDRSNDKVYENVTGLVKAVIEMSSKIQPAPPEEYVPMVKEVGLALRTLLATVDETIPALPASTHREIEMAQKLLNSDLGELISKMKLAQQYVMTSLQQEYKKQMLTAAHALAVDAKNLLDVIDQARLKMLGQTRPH

[4] = molecular target: T1, FAK (GST-FAK, flag-FAK); experiment: affinity resin pull-down of purified protein, western blot; format: binding; details: immobilised 5-PCP-InsP5 resin; 4 °C overnight; also endogenous protein from HUVEC lysate; free 5-PCP (10 μM) with 5-InsP7 (5 μM) in a FAK dimerization competition assay
[5] = molecular target: T4, p34 (flag-p34) (Homo sapiens, UniProt O15144); experiment: as above; format: binding; details: immobilised 5-PCP-InsP5 resin; 4 °C overnight; also endogenous protein from HUVEC lysate
T4 construct: gene ARPC2; tag kept; endogenous HUVEC protein also pulled down

Compound	block of 5-InsP7-mediated FAK dimerization [1]	affinity resin pull-down of purified protein, western blot [2]	affinity resin pull-down from cell lysate, western blot [3]	affinity resin pull-down of purified protein, western blot [4]	affinity resin pull-down of purified protein, western blot [5]
O=C(N[C@@H]1[C@@H](OP(=O)(O)O)[C@H](OP(=O)(O)O)[C@H](OP(=O)(O)O)[C@H](OP(=O)(O)O)[C@H]1OP(=O)(O)O)C(F)(F)P(=O)(O)O [5-PCF2Am-InsP5]	5-PCP and CF2 compete with 5-InsP7 to block 5-InsP7-mediated FAK dimer formation				
O=P(O)(O)CP(=O)(O)O[C@H]1[C@H](OP(=O)(O)O)[C@@H](OP(=O)(O)O)[C@@H](OP(=O)(O)O)[C@@H](OP(=O)(O)O)[C@@H]1OP(=O)(O)O [5-PCP-InsP5]		pulls down purified p34 and coronin in an in vitro protein binding assay	5-PCP resin pulls down endogenous FAK in WT and IP6K1 KO MEF cells	5-PCP resin pulls down purified full length (FL) FAK and FAK FERM domain	pulls down purified p34 and coronin in an in vitro protein binding assay
